According to US11795181B2, “Basic copper gluconate” (JOST CHEMICAL CO., priority 2020, dated 2023):

How the values were obtained:
[1] = background statement; cited from earlier work
Aqueous solubility = format: physicochemical; conditions: in water
Text: However, at higher concentrations (i.e., 30% and above), solutions are prone to secondary redox reactions if left to sit for prolonged periods in the open air. Copper (II) slowly oxidizes gluconic acid producing a red precipitate of cuprous oxide (Cu2O). […] This is less evident in the 25% solution of basic copper gluconate than in the remaining, higher percentage, solutions.

Compound | aqueous solubility (in words) [1] | water solubility (Aqueous solubility)
O=C([O-])[C@H](O)[C@@H](O)[C@H](O)[C@H](O)CO.O=C([O-])[C@H](O)[C@@H](O)[C@H](O)[C@H](O)CO.[Cu+2] [copper gluconate, Copper gluconate] | excellent aqueous solubility | 
O=C([O][Cu][OH])C(O)C(O)C(O)C(O)CO (centres unmarked) [Basic copper gluconate] |  | over 50 g/100 g water
